Bridge positions count the residues as written; N and C are the ends. Square brackets hold non-standard residues; d marks the D form. Peptide text beside a SMILES is read from it. R8 = C=CCCCCCC[C@@](C)(N)C(=O)O; S5 = C=CCCC[C@](C)(N)C(=O)O; Nle = CCCC[C@H](N)C(=O)O; Abu = CC[C@H](N)C(=O)O
Assays:
[1] = test system: HRE-bla ME-180 cells; assay: Cell proliferation assay (viability, MTT, 1% FBS); type: cell-based, human
Method: The human cervical cell line HRE-Bla ME-180 was obtained from Invitrogen. 2×10^4 ME-180 cells were plated in 96-well plates (costar) in Opti-MEM plus 1% FBS (Invitrogen). After 4 hr, cells were pretreated with chetomin, peptide or 0.5% DMSO (final concentration in media) vehicle control for 16 hr under normoxia (21% O2); then incubation continued under normoxia or hypoxia (1% O2) using a hypoxia incubator (Thermo Forma model). Viable cell numbers were quantified using CellTiter 96 Non-Radioactive Cell Proliferation kit (Promega, G4100). The results are presented in the column “Viability 1% FBS AVG (MTT V3-24 hr Normoxia) (μM)” of Table 6.

[2] = test system: HRE-bla ME-180 cells; assay: Reporter gene assay (HRE-bla ME-180 HIF reporter, GeneBLAzer); type: cell-based, human; conditions: for EC50: 24 hour normoxia
Procedure, shortened: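 A FRET β-lactamase readout of HIF transcription was used. After compound treatment in 0.3% DMSO/media under normoxic conditions, 20 μl of 6× LiveBLAzer-FRET B/G (CCF4-AM) substrate was added. Plates sat 3 hr at room temperature in the dark and were read at 409 Ex/460Em and 409Ex/530Em on a Synergy 2. Inhibition was compared against DMSO vehicle controls, with chetomin as positive control.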

| SMILES | Viability 1% FBS AVG (MTT V3-24 hr Normoxia) (μM) [1] | 18 h Avg % max inhibition at top conc (HIF Rptr-24 hrs normoxia) (μM) [2] | EC50 [2] [µM] |
| --- | --- | --- | --- |
| CCCC[C@H](NC(=O)[C@H](CCC(=O)O)NC(=O)[C@@H](NC(=O)[C@@H](NC(=O)[C@H](CC(C)C)NC(=O)[C@]1(C)CCCC=CCCC[C@](C)(NC(=O)[C@H](CCC(=O)O)NC(=O)[C@H](CC(=O)O)NC(=O)[C@@H](NC(=O)[C@H](CC(N)=O)NC(=O)[C@@H](NC(=O)[C@H](CCC(N)=O)NC(=O)[C@H](CC(=O)O)NC(=O)[C@H](CC(C)C)NC(=O)[C@H](C)NC(=O)[C@H](CCCNC(=N)N)NC(=O)[C@]2(C)CCCC=CCCC[C@](C)(NC(=O)[C@H](CCC(N)=O)NC(=O)[C@H](CC(C)C)NC(=O)[C@H](CC(C)C)NC(C)=O)C(=O)N[C@@H](CCC(=O)O)C(=O)N[C@@H](CCC(=O)O)C(=O)N[C@@H](CC(C)C)C(=O)N2)C(C)C)[C@@H](C)CC)C(=O)N[C@@H](C(C)C)C(=O)N[C@@H](CC(C)C)C(=O)N[C@@H](CCCC)C(=O)N1)C(C)C)[C@@H](C)CC)C(=O)NCC(N)=O [SP-325] (Ac-LLQ[S5]EEL[S5]RALDQVNIDE[S5]VL[Nle][S5]LVIE[Nle]G-NH2; staple 4-8, 19-23) | ++++ (≥30: ++++) | + (<10: +) | > 30 |
| CC[C@H](C)[C@H](NC(=O)[C@H](Cc1ccccc1)NC(C)=O)C(=O)N[C@@H](CC(=O)O)C(=O)N[C@@H](CCC(=O)O)C(=O)N[C@@H](CCC(=O)O)C(=O)N[C@H](C(=O)N[C@@H](CC(C)C)C(=O)N[C@@H](CCSC)C(=O)N[C@@]1(C)CCCC=CCCC[C@@](C)(C(=O)N[C@@H](CCSC)C(=O)N[C@@H](C)C(=O)N[C@@H](CC(C)C)C(=O)N[C@@H](CC(C)C)C(N)=O)NC(=O)[C@H]([C@@H](C)CC)NC(=O)[C@H](C(C)C)NC(=O)[C@H](CC(C)C)NC1=O)C(C)C [SP-229] (Ac-FIDEEVLM[S5]LVI[S5]MALL-NH2; staple 9-13) | ++++ (≥30: ++++) | + (<10: +) | > 30 |
| CC[C@H](C)[C@H](NC(=O)[C@H](CC(N)=O)NC(=O)[C@@H](NC(=O)[C@H](CCC(N)=O)NC(=O)[C@H](CC(=O)O)NC(=O)[C@H](CC(C)C)NC(=O)[C@H](C)NC(=O)[C@H](CCCNC(=N)N)NC(=O)[C@H](CC(C)C)NC(=O)[C@H](CC(C)C)NC(=O)[C@H](CCC(=O)O)NC(=O)[C@H](CCC(=O)O)NC(=O)CNC(=O)[C@H](CCC(N)=O)NC(=O)[C@H](CC(C)C)NC(=O)[C@H](CC(C)C)NC(C)=O)C(C)C)C(=O)N[C@@H](CC(=O)O)C(=O)N[C@@H](CCC(=O)O)C(=O)N[C@@H](CCC(=O)O)C(=O)N[C@H](C(=O)N[C@@H](CC(C)C)C(=O)N[C@@H](CCSC)C(=O)N[C@@]1(C)CCCC=CCCC[C@@](C)(C(=O)N[C@@H](CCSC)C(N)=O)NC(=O)[C@H]([C@@H](C)CC)NC(=O)[C@H](C(C)C)NC(=O)[C@H](CC(C)C)NC1=O)C(C)C [SP-319] (Ac-LLQGEELLRALDQVNIDEEVLM[S5]LVI[S5]M-NH2; staple 23-27) | ++++ (≥30: ++++) | + (<10: +) | > 30 |
| CCCC[C@H](NC(=O)[C@H](Cc1ccccc1)NC(=O)[C@@H](NC(=O)[C@H](C)NC(=O)[C@H](CCC(N)=O)NC(=O)[C@H](CC(=O)O)NC(=O)[C@@H](NC(=O)[C@H](Cc1ccccc1)NC(C)=O)[C@@H](C)CC)C(C)C)C(=O)N[C@@]1(C)CCCC=CCCC[C@@](C)(C(=O)N[C@@H](CCCC)C(=O)N[C@@H](C)C(=O)N[C@@H](CC(C)C)C(=O)N[C@@H](CC(C)C)C(N)=O)NC(=O)[C@H]([C@@H](C)CC)NC(=O)[C@H](C(C)C)NC(=O)[C@H](Cc2c[nH]cn2)NC1=O [SP-254] (Ac-FIDQAVF[Nle][S5]HVI[S5][Nle]ALL-NH2; staple 9-13) | + (<5: +) | +++ (≤25 but <50: +++) | ≤ 5 |
| CC[C@H](C)[C@H](NC(=O)[C@H](CCCNC(=N)N)NC(=O)[C@H](CC(=O)O)NC(=O)[C@H](CC(C)C)NC(=O)[C@H](C)NC(=O)[C@H](CCSC)NC(=O)[C@H](CCC(=O)O)NC(=O)[C@]1(C)CCCC=CCCCCCC[C@@](C)(NC(=O)[C@H](CCC(=O)O)NC(=O)[C@H](CC(=O)O)NC(=O)[C@@H](NC(=O)[C@H](Cc2ccccc2)NC(C)=O)[C@@H](C)CC)C(=O)N[C@@H](C(C)C)C(=O)N[C@@H](CC(C)C)C(=O)N[C@@H](CCSC)C(=O)N[C@@H](CO)C(=O)N[C@@H](CC(C)C)C(=O)N[C@@H](C(C)C)C(=O)N1)C(N)=O [SP-175] (Ac-FIDE[R8]VLMSLV[S5]EMALDRI-NH2; staple 5-12) | ++++ (≥30: ++++) | ++ (≤10 but <25: ++) | > 30 |
| CCCC[C@H](NC(=O)[C@H](C)NC(=O)[C@@H](NC(=O)[C@@H](NC(=O)[C@H](CC(C)C)NC(=O)[C@]1(C)CCCC=CCCC[C@](C)(NC(=O)[C@H](CCC(=O)O)NC(=O)[C@H](CC(=O)O)NC(=O)[C@@H](NC(=O)[C@H](Cc2ccccc2)NC(C)=O)[C@@H](C)CC)C(=O)N[C@@H](C(C)C)C(=O)N[C@@H](CC(C)C)C(=O)N[C@@H](CCCC)C(=O)N1)C(C)C)[C@@H](C)CC)C(=O)N[C@@H](C)C(=O)N[C@@H](CC(C)C)C(=O)N[C@@H](CO)C(=O)N[C@@H](CO)C(=O)N[C@H](C(N)=O)[C@@H](C)CC [SP-129] (Ac-FIDE[S5]VL[Nle][S5]LVIA[Nle]ALSSI-NH2; staple 5-9) | ++++ (≥30: ++++) | ++ (≤10 but <25: ++) | > 30 |
| CC[C@@H]1NC(=O)[C@H](CC(=O)O)NC(=O)[C@H](Cc2ccc(O)cc2)NC(=O)[C@@](C)(NC(=O)[C@@H](NC(=O)[C@H](CC(C)C)NC(=O)[C@H](CCC(N)=O)NC(=O)[C@@H]2CCCN2C(=O)[C@H](CC(C)C)NC(=O)[C@H](CCC(=O)O)NC(=O)[C@H](CCCCN)NC(=O)[C@@H](NC(=O)[C@H](CCCNC(=N)N)NC(=O)[C@H](CC(=O)O)NC(=O)[C@H](CC(C)C)NC(=O)CNC(=O)[C@H](CCSC)NC(=O)[C@H](CCC(=O)O)NC(=O)[C@@H](NC(=O)[C@@H](NC(=O)[C@H](CC(C)C)NC(=O)[C@]2(C)CCCC=CCCC[C@](C)(NC(=O)[C@H](CCC(=O)O)NC(=O)[C@H](CC(=O)O)NC(=O)[C@@H](NC(=O)[C@H](Cc3ccccc3)NC(C)=O)[C@@H](C)CC)C(=O)N[C@@H](C(C)C)C(=O)N[C@@H](CC(C)C)C(=O)N[C@@H](CCSC)C(=O)N2)C(C)C)[C@@H](C)CC)[C@@H](C)CC)[C@@H](C)O)CCCC=CCCC[C@@](C)(C(=O)N[C@H](C(=O)N[C@@H](CC(N)=O)C(=O)N[C@@H](C)C(N)=O)C(C)C)NC1=O [SP-322] (Ac-FIDE[S5]VLM[S5]LVIEMGLDRIKELPQLT[S5]YD[Abu][S5]VNA-NH2; staple 5-9, 27-31) | ++++ (≥30: ++++) | + (<10: +) | > 30 |
